Data reported in patent publication US9446039B2, “Aminoheteroaryl compounds as MTH1 inhibitors” (CEMM—FORSCHUNGSZENTRUM FÜR MOLEKULARE MEDIZIN GMBH, priority 2012, dated 2016).

What was measured:
[1] = biological target: SW480 colon carcinoma cells lysate proteins (Homo sapiens, UniProt P27695); type: binding; conditions: PreyGene APEX1
[2] = biological target: SW480 colon carcinoma cells lysate proteins (Homo sapiens, UniProt P39687); type: binding; conditions: PreyGene ANP32A
[3] = biological target: T1, SW480 colon carcinoma cells lysate proteins (Homo sapiens, UniProt P49458); type: binding; conditions: PreyGene SRP9
T1 sequence (P49458 1-86): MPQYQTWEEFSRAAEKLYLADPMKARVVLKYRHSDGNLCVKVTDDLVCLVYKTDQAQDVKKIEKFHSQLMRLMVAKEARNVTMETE

[4] = biological target: SW480 colon carcinoma cells lysate proteins (Homo sapiens, UniProt P68363); type: binding; conditions: PreyGene TUBA1B; SW480 cells
Sequence of SW480 colon carcinoma cells lysate proteins (Homo sapiens, UniProt P68363) (P68363 whole entry): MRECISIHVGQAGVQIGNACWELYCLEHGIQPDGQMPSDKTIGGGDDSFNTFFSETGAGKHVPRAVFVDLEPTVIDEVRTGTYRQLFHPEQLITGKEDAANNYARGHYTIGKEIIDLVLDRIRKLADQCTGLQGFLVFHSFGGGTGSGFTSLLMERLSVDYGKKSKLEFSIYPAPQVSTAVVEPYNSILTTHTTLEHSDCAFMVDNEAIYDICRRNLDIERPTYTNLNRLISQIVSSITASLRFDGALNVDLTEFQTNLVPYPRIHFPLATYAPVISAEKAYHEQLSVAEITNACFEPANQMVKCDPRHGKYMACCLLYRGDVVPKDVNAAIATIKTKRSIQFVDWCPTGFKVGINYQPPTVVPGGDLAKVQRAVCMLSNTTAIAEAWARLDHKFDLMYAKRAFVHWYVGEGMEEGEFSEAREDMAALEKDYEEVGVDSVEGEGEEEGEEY

[5] = biological target: SW480 colon carcinoma cells lysate proteins (Homo sapiens, UniProt Q07812); type: binding; conditions: PreyGene BAX; SW480 cells
Sequence of SW480 colon carcinoma cells lysate proteins (Homo sapiens, UniProt Q07812) (Q07812 whole entry): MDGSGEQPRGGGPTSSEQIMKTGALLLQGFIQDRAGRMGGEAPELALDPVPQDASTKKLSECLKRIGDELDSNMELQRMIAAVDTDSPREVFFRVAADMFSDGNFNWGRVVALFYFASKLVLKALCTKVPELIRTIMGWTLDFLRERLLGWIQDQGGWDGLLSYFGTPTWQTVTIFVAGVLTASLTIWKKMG

[6] = biological target: T2, SW480 colon carcinoma cells lysate proteins (Homo sapiens, UniProt Q15102); type: binding; conditions: PreyGene PAFAH1B3; SW480 cells
T2 sequence (Q15102 1-231): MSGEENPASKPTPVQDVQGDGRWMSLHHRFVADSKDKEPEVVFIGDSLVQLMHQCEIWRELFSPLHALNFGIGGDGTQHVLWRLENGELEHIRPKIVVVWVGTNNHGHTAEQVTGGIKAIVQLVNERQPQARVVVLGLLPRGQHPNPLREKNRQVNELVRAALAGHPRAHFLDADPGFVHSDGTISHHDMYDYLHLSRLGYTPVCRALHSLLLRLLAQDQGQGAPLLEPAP

[7] = biological target: T3, SW480 colon carcinoma cells lysate proteins (Homo sapiens, UniProt Q16181); type: binding; conditions: PreyGene 07-Sep
T3 sequence (Q16181 1-437): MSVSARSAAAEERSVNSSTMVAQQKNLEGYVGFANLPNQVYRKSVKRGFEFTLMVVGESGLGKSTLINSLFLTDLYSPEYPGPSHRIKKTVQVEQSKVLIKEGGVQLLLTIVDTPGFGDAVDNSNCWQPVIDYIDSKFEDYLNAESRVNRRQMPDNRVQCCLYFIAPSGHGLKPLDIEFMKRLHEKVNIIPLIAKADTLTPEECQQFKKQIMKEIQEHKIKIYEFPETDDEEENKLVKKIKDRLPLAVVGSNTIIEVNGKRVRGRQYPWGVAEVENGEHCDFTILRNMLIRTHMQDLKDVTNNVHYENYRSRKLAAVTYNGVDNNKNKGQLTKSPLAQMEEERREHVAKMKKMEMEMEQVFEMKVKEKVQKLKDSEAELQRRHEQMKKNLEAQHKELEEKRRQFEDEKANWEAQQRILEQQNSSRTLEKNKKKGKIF

[8] = biological target: T4, SW480 colon carcinoma cells lysate proteins (Homo sapiens, UniProt Q9Y383); type: binding; conditions: PreyGene LUC7L2
T4 sequence (Q9Y383 1-392): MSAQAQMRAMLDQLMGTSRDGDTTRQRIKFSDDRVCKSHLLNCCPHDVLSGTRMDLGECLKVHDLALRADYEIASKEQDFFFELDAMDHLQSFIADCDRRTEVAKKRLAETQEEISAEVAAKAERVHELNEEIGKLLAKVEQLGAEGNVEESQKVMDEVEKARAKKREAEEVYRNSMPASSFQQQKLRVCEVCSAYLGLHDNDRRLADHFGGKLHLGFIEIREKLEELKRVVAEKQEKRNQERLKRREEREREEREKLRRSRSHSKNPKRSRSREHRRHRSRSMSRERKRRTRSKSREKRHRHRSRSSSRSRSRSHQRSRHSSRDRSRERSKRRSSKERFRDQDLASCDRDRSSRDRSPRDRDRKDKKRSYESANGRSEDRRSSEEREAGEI

[9] = system: SW480 colon carcinoma cells lysate proteins; type: binding, human; conditions: PreyGene EIF3C, EIF3CL; SW480 cells

Sequence of SW480 colon carcinoma cells lysate proteins (Homo sapiens, UniProt P27695) (P27695 whole entry): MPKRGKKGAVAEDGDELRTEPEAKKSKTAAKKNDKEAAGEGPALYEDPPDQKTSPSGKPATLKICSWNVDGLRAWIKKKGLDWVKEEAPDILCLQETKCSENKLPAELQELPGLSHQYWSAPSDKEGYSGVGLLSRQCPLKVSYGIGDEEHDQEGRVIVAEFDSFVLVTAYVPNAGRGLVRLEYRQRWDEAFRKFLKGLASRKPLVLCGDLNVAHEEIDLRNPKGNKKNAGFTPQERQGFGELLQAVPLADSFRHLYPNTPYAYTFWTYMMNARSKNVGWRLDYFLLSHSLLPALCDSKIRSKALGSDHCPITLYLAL
Sequence of SW480 colon carcinoma cells lysate proteins (Homo sapiens, UniProt P39687) (P39687 whole entry): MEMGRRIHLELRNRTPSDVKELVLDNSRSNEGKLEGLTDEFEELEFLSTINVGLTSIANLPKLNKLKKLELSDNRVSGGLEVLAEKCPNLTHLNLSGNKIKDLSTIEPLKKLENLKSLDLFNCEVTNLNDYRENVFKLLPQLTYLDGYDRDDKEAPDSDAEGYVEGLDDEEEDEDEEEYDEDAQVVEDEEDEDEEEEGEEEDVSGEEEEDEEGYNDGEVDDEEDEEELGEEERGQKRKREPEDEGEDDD

C[C@H](Oc1cc(-c2cnn(C3CCNCC3)c2)cnc1N)c1c(Cl)ccc(F)c1Cl [(5)-crizotinib]
AvgP [1]: 0.1792 | SC.Exp. 1-1 [1]: 2 | SC.Exp. 1-2 [1]: 0 | SC.Exp. 2-1 [1]: 0 | SC.Exp. 2-2 [1]: 0 | Sum (SC.Exp.) [1]: 2 | AvgP [2]: 0.5951 | SC.Exp. 1-1 [2]: 1 | SC.Exp. 1-2 [2]: 1 | SC.Exp. 2-1 [2]: 1 | SC.Exp. 2-2 [2]: 3 | Sum (SC.Exp.) [2]: 6 | AvgP [3]: 0.2561 | SC.Exp. 1-1 [3]: 2 | SC.Exp. 1-2 [3]: 1 | SC.Exp. 2-1 [3]: 0 | SC.Exp. 2-2 [3]: 2 | Sum (SC.Exp.) [3]: 5 | AvgP [4]: 0 | SC.Exp. 1-1 [4]: 1 | SC.Exp. 1-2 [4]: 1 | SC.Exp. 2-1 [4]: 0 | SC.Exp. 2-2 [4]: 0 | SC.Exp. Sum [4]: 2 | AvgP [5]: 0 | SC.Exp. 1-1 [5]: 1 | SC.Exp. 1-2 [5]: 1 | SC.Exp. 2-1 [5]: 1 | SC.Exp. 2-2 [5]: 1 | SC.Exp. Sum [5]: 4 | AvgP [6]: 0 | SC.Exp. 1-1 [6]: 1 | SC.Exp. 1-2 [6]: 1 | SC.Exp. 2-1 [6]: 0 | SC.Exp. 2-2 [6]: 0 | SC.Exp. Sum [6]: 2 | AvgP [7]: 0.2962 | SC.Exp. 1-1 [7]: 3 | SC.Exp. 1-2 [7]: 3 | SC.Exp. 2-1 [7]: 0 | SC.Exp. 2-2 [7]: 0 | Sum (SC.Exp.) [7]: 6 | AvgP [8]: 0.3775 | SC.Exp. 1-1 [8]: 3 | SC.Exp. 1-2 [8]: 3 | SC.Exp. 2-1 [8]: 0 | SC.Exp. 2-2 [8]: 0 | Sum (SC.Exp.) [8]: 6 | AvgP [9]: 0 | SC.Exp. 1-1 [9]: 4 | SC.Exp. 1-2 [9]: 6 | SC.Exp. 2-1 [9]: 7 | SC.Exp. 2-2 [9]: 7 | SC.Exp. Sum [9]: 24
